One may read the EC50 as the midpoint of the concentration-response curve.

This note sets out measurements from patent publication US9309231B2, “Bridged ring compounds as hepatitis C virus (HCV) inhibitors and pharmaceutical applications thereof” (SUNSHINE LAKE PHARMA CO., LTD, priority 2012, dated 2016).

Experiment [1] concerns HCV GT1a replicon cells. The experiment is described as follows: HCV replicon assay, GT1a replicon cells. As to conditions: Hepatitis C virus, 72 hours incubation, luciferase reporter or NEO gene qPCR readout, read-out: EC50 against HCV 1a genotype. The experiment is classed as cell-based. The procedure: (§1) An HCV Replicon assay was utilized in the present disclosure, and was prepared, developed and validated as described in Science, 1999, 285 (5424), 110-3 and J. Virol., 2003, 77 (5), 3007-19.
(§2) HCV GT1a, GT1b and GT2a replicon cells were used to test the currently described compound series as well as wild-type cells HCV 1b and resistant cells Y^93H, L31F, P32L and I302V. GT1a and CT1b are HCV Replicon System which is transfected HCV 1a, 1b genotype respectively.
(§3) 1. Testing EC50 of the Compounds by Luciferase Assay
(§4) The GT1b cells and GT1a cells were seeded into 96-well plates (8,000 cells in 125 μl/well) respectively; each compound was diluted to desired concentration using 5-fold serial dilutions protocol, 10 dose in duplicate, and added to wells with POD™ 810 Plate Assembler. The final concentration of DMSO was 0.5%; the plates were incubated in a CO2 incubator for 72 hours; after that, 40 μl of Luciferase assay substrate (Promega Bright-Glo) was added to each well, and detected by a chemiluminescence detection system (Topcount Microplate Scintillation and Luminescence Counter) 5 minutes later; data analysis.
(§5) 2. Testing EC50 of the Compounds by Detecting Antibiotic G418 Resistance Gene NEO Gene
(§6) The GT1b cells and GT1a cells were seeded into 96-well plates (8,000 cells in 125 μl/well) respectively; each compound was diluted to desired concentration using 5-fold serial dilutions protocol, 10 dose in duplicate, and added to wells with POD™ 810 Plate Assembler., the final concentration of DMSO was 0.5%; the cells were incubated in a CO2 incubator for 72 hours; quantitative PCR. • Sample preparation: the supernatant was removed, 100 μl of FCW buffer solution was added to each well, washed carefully and discarded the solution; 50 μl of lysate FCP was added to each well, the cells was lysed as PCR template and diluted with DEPC water. • Quantitative PCR: preparation of reaction mixture according to PCR system; the reaction mixture was dispensed into a 384-well PCR reaction plate (specially for quantitative); and a standard template which was diluted in proportion was distributed into the plate; and the sample template was distributed into the plate; then the 384-well plate was sealed with closure plate membrane; the […] PCR machine was operated by procedures; data analysis.
(§7) 3. Data Processing: The EC50 Values of Compounds were Analyzed by GraphPad Prism Software.
A general note: A replicon is a self-replicating genome or part of one, used to study replication in cells.

The subject of experiment [2] is HCV GT1b replicon cells. The experiment in a line: HCV replicon assay, GT1b replicon cells. In kind it is cell-based. To be noted: Hepatitis C virus, 72 hours incubation, luciferase reporter or NEO gene qPCR readout, read-out: EC50 against HCV 1b genotype. The method, then: as §1, §2, §3, §4, §5, §6, §7

As for `COC(=O)N[C@H](C(=O)N1CCC[C@H]1c1nc2ccc(-c3ccc(-c4ccc(-c5cnc([C@@H]6C7CCC(C7)N6C(=O)[C@@H](NC(=O)OC)C(C)C)[nH]5)cc4)c4c3C3CCC4C3)cc2[nH]1)C(C)C` (some centres unmarked) [Example 1], the half-maximal effective concentration (EC50) came to 0.029 nM in experiment [1] and 0.008 nM in experiment [2].

As to `COC(=O)N[C@H](C(=O)N1CCC[C@H]1c1nc2ccc(-c3ccc(-c4ccc(-c5cnc([C@@H]6CC7CC7N6C(=O)[C@@H](NC(=O)OC)C(C)C)[nH]5)cc4)c4c3C3CCC4C3)cc2[nH]1)C(C)C` (some centres unmarked) [Example 3], the concentration giving a half-maximal response (EC50) in experiment [1] stood at 0.053 nM; in experiment [2], 0.013 nM.

As for `COC(=O)N[C@H](C(=O)N1CCC[C@H]1c1ncc(-c2ccc(-c3ccc(-c4cnc([C@@H]5CCCN5C(=O)[C@@H](NC(=O)OC)C(C)C)[nH]4)c4c3C3CCC4C3)c(F)c2)[nH]1)C(C)C` (some centres unmarked) [Example 4], the concentration for a half-maximal effect (EC50) turned out to be 0.497 nM in experiment [1] and 0.007 nM in experiment [2].

As for `COC(=O)N[C@H](C(=O)N1CCC[C@H]1c1ncc(-c2ccc(-c3ccc(-c4ccc(-c5cnc([C@@H]6CCCN6C(=O)[C@@H](NC(=O)OC)C(C)C)[nH]5)cc4)c4c3C3CCC4C3)cc2)[nH]1)C(C)C` [Example 5], the EC50 is 1.05 nM in experiment [1] and 0.098 nM in experiment [2].

Consider `COC(=O)N[C@H](C(=O)N1CCC[C@H]1c1nc2cc(-c3ccc(-c4ccc5[nH]c([C@@H]6CCCN6C(=O)[C@@H](NC(=O)OC)C(C)C)nc5c4)c4c3C3CCC4C3)ccc2[nH]1)C(C)C` [Example 6], for which the figures for the EC50 in experiment [1] and in experiment [2] were 0.047 nM and 0.006 nM, respectively.

For the molecule `COC(=O)N[C@@H](C)C(=O)N1CCC[C@H]1c1ncc(-c2ccc(-c3ccc(-c4ccc5[nH]c([C@@H]6CCCN6C(=O)[C@H](C)NC(=O)OC)nc5c4)c4c3C3CCC4C3)cc2)[nH]1` (some centres unmarked) [Example 7], the results for the concentration for a half-maximal effect (EC50) in experiment [1] and in experiment [2] were 0.094 nM and 0.076 nM, respectively.

Regarding `COC(=O)N[C@H](C(=O)N1CCC[C@H]1c1nc2cc(-c3ccc(-c4ccc(-c5cnc([C@H]6CCCN6C(=O)[C@@H](NC(=O)OC)C(C)C)[nH]5)cc4)c4c3C3CCC4C3)ccc2[nH]1)c1ccccc1` (some centres unmarked) [Example 8], the 50% effective concentration (EC50) is 0.033 nM in experiment [1] and 0.019 nM in experiment [2].

Turning to `CCC(C)[C@H](NC(=O)OC)C(=O)N1CCC[C@H]1c1nc2cc(-c3ccc(-c4ccc(-c5cnc([C@@H]6CCCN6C(=O)[C@@H](NC(=O)OC)C(C)C)[nH]5)cc4)c4c3C3CCC4C3)ccc2[nH]1` (some centres unmarked) [Example 9], the EC50 in experiment [1] worked out at 0.104 nM; in experiment [2], 0.009 nM.

With `COC(=O)N[C@H](C(=O)N1CCC[C@H]1c1ncc(-c2ccc(-c3ccc(-c4cnc([C@@H]5CCCN5C(=O)[C@@H](NC(=O)OC)C5CCCCC5)[nH]4)c4c3C3CCC4C3)cc2)[nH]1)C1CCCCC1` (some centres unmarked) [Example 10], the 50% effective concentration (EC50) worked out at 0.374 nM in experiment [1] and 0.013 nM in experiment [2].

For the molecule `COC(=O)N[C@H](C(=O)N1CCC[C@H]1c1ncc(-c2ccc(-c3nnc(-c4ccc5[nH]c([C@@H]6CCCN6C(=O)[C@@H](NC(=O)OC)C(C)C)nc5c4)c4c3C3CCC4CC3)cc2)[nH]1)C(C)C` [Example 11], the 50% effective concentration (EC50) in experiment [1] came to 0.049 nM; in experiment [2], 0.023 nM.

On to `COC(=O)N[C@H](C(=O)N1CCC[C@H]1c1ncc(-c2ccc(-c3nnc(-c4ccc5[nH]c([C@@H]6CCCN6C(=O)[C@@H](NC(=O)OC)C(C)C)nc5c4)c4c3C3CCC4C3)cc2)[nH]1)C(C)C` (some centres unmarked) [Example 12], for which the EC50 is 0.658 nM in experiment [1] and 0.373 nM in experiment [2].

On to `COC(=O)N[C@H](C(=O)N1C[C@@H](F)CC1c1ncc(-c2ccc(-c3ccc(-c4cnc(C5C[C@H](F)CN5C(=O)[C@@H](NC(=O)OC)C(C)C)[nH]4)c4c3C3CCC4C3)cc2)[nH]1)C(C)C` (some centres unmarked) [Example 13], for which the results for the EC50 in experiment [1] and in experiment [2] were 0.53 nM and 0.034 nM, respectively.

`COC(=O)N[C@H](C(=O)N1CC(F)(F)C[C@H]1c1ncc(-c2ccc(-c3ccc(-c4cnc([C@@H]5CC(F)(F)CN5C(=O)[C@@H](NC(=O)OC)C(C)C)[nH]4)c4c3C3CCC4C3)cc2)[nH]1)C(C)C` (some centres unmarked) [Example 14]: the half-maximal effective concentration (EC50) in experiment [1] was 0.487 nM; in experiment [2], 0.006 nM.

Consider `COC(=O)N[C@H](C(=O)N1CCC[C@H]1C(=O)Nc1cccc(-c2ccc(-c3ccc(-c4cnc([C@@H]5CCCN5C(=O)[C@@H](NC(=O)OC)C(C)C)[nH]4)cc3)c3c2C2CCC3C2)c1)C(C)C` (some centres unmarked) [Example 16], for which the EC50 in experiment [1] was found to be 3.5 nM; in experiment [2], 0.009 nM.

Consider `COC(=O)N[C@H](C(=O)N1CCC[C@H]1c1ncc(-c2ccc(-c3ccc(-c4ccc5nc([C@@H]6CCCN6C(=O)[C@@H](NC(=O)OC)C(C)C)[nH]c5c4)c4c3C3CCC4C3)cc2)[nH]1)C(C)C` (some centres unmarked) [Example 17], for which the EC50 in experiment [1] was 0.767 nM; in experiment [2], 0.007 nM.

Regarding `COC(=O)N[C@H](C(=O)N1CCC[C@H]1c1ncc(-c2ccc(-c3ccc(-c4cnc([C@@H]5CCCN5C(=O)[C@@H](NC(=O)OC)C(C)C)[nH]4)c4c3C3CCC4C3)cc2)[nH]1)C(C)C` (some centres unmarked) [Example 18], the concentration for a half-maximal effect (EC50) is 0.138 nM in experiment [1] and 0.014 nM in experiment [2].

Regarding `COC(=O)N[C@H](C(=O)N1CCCC1c1ncc(C#Cc2ccc(C#Cc3cnc([C@@H]4CCCN4C(=O)[C@@H](NC(=O)OC)C(C)C)[nH]3)c3c2C2CCC3C2)[nH]1)C(C)C` (some centres unmarked) [Example 19], the EC50 in experiment [1] was 0.087 nM; in experiment [2], 0.026 nM.

Regarding `COC(=O)N[C@H](C(=O)N1C[C@@H](C)C[C@H]1c1ncc(-c2ccc(-c3ccc(-c4cnc([C@@H]5C[C@H](C)CN5C(=O)[C@@H](NC(=O)OC)C(C)C)[nH]4)c4c3C3CCC4C3)cc2)[nH]1)C(C)C` (some centres unmarked) [Example 20], the figures for the EC50 in experiment [1] and in experiment [2] were less than 0.001 nM and 0.045 nM, respectively.

With `COC(=O)N[C@H](C(=O)N1CCC[C@H]1c1ncc(-c2ccc(-c3ccc(-c4ccc5nc([C@@H]6CCCN6C(=O)[C@@H](NC(=O)OC)C(C)C)[nH]c5c4)c4c3C3CCC4CC3)cc2)[nH]1)C(C)C` [Example 21], the EC50 in experiment [1] was 0.093 nM; in experiment [2] it was 0.013 nM.

Regarding `COC(=O)N[C@H](C(=O)N1CCC[C@H]1c1ncc(-c2ccc(-c3ccc(-c4cnc([C@@H]5CCCN5C(=O)[C@@H](NC(=O)OC)C(C)C)[nH]4)c4c3C3CCC4CC3)cc2)[nH]1)C(C)C` [Example 22], the figures for the concentration for a half-maximal effect (EC50) in experiment [1] and in experiment [2] were 11.4 nM and 0.004 nM, respectively.

Turning to `COC(=O)N[C@H](C(=O)N1CCC[C@H]1c1ncc(C#Cc2ccc(C#Cc3cnc([C@@H]4CCCN4C(=O)[C@@H](NC(=O)OC)C(C)C)[nH]3)c3c2C2CCC3N2C)[nH]1)C(C)C` [Example 24], the results for the concentration giving a half-maximal response (EC50) in experiment [1] and in experiment [2] were 0.453 nM and 0.096 nM, respectively.

`COC(=O)N[C@H](C(=O)N1CCC[C@H]1c1nc2ccc(-c3ccc(-c4ccc5nc([C@@H]6CCCN6C(=O)[C@@H](NC(=O)OC)C(C)C)[nH]c5c4)c4c3C3CCC4N3C)cc2[nH]1)C(C)C` [Example 25]: the results for the EC50 in experiment [1] and in experiment [2] were 0.083 nM and 0.032 nM, respectively.

In the case of `COC(=O)N[C@H](C(=O)N1CCC[C@H]1c1ncc(-c2ccc(-c3ccc(-c4cnc([C@@H]5CCCN5C(=O)[C@@H](NC(=O)OC)C(C)C)[nH]4)c4c3C3CCC4N3C)cc2)[nH]1)C(C)C` (some centres unmarked) [Example 26], the EC50 in experiment [1] came out at 0.653 nM; in experiment [2], 0.077 nM.

Take `CC[C@H](C)[C@H](NC(=O)OC)C(=O)N1CCC[C@H]1c1nc2ccc(-c3ccc(-c4ccc(-c5cnc([C@@H]6CCCN6C(=O)[C@@H](NC(=O)OC)C(C)C)[nH]5)cc4)c4c3C3CCC4N3C)cc2[nH]1` (some centres unmarked) [Example 28]: the EC50 in experiment [1] was 0.063 nM; in experiment [2] it was 0.015 nM.

On to `COC(=O)N[C@H](C(=O)N1CC(F)(F)CC1c1ncc(-c2ccc(-c3ccc(-c4cnc([C@@H]5CC(F)(F)CN5C(=O)[C@@H](NC(=O)OC)C(C)C)[nH]4)cc3)c3c2C2CCC3N2C)[nH]1)C(C)C` (some centres unmarked) [Example 31], for which the EC50 in experiment [1] stood at 0.077 nM; in experiment [2], 0.038 nM.

`COC(=O)N[C@H](C(=O)N1C[C@H](C)C[C@H]1c1ncc(-c2ccc(-c3ccc(-c4cnc([C@@H]5C[C@H](C)CN5C(=O)[C@@H](NC(=O)OC)C(C)C)[nH]4)c4c3C3CCC4N3C)cc2)[nH]1)C(C)C` (some centres unmarked) [Example 33]: the values for the EC50 in experiment [1] and in experiment [2] were 0.038 nM and 0.009 nM, respectively.

On to `COC(=O)N[C@H](C(=O)N1CCC[C@H]1c1ncc(-c2ccc(-c3ccc(-c4ccc5nc([C@@H]6CCCN6C(=O)[C@@H](NC(=O)OC)C(C)C)[nH]c5c4)c4c3C3CCC4N3C)nc2)[nH]1)C(C)C` (some centres unmarked) [Example 34], for which the values for the EC50 in experiment [1] and in experiment [2] were 0.054 nM and 0.006 nM, respectively.

With `COC(=O)N[C@@H](C)C(=O)N1CCCC[C@H]1c1ncc(-c2ccc(-c3ccc(-c4ccc5nc([C@@H]6CCCCN6C(=O)[C@H](C)NC(=O)OC)[nH]c5c4)c4c3C3CCC4N3C)cc2)[nH]1` (some centres unmarked) [Example 35], the 50% effective concentration (EC50) in experiment [1] is 0.103 nM; in experiment [2], 0.017 nM.
